Calls of active or inactive are those of the source.
Tests used:
Assay type in all cases: functional
[1] = target: T1, Replicative DNA helicase DnaB (Mycobacterium tuberculosis, UniProt P9WMR3); assay: DnaB intein splicing inhibitors, dose response, biochemical, cell-free fluorescence (AID 449749)
T1 sequence (P9WMR3 whole entry): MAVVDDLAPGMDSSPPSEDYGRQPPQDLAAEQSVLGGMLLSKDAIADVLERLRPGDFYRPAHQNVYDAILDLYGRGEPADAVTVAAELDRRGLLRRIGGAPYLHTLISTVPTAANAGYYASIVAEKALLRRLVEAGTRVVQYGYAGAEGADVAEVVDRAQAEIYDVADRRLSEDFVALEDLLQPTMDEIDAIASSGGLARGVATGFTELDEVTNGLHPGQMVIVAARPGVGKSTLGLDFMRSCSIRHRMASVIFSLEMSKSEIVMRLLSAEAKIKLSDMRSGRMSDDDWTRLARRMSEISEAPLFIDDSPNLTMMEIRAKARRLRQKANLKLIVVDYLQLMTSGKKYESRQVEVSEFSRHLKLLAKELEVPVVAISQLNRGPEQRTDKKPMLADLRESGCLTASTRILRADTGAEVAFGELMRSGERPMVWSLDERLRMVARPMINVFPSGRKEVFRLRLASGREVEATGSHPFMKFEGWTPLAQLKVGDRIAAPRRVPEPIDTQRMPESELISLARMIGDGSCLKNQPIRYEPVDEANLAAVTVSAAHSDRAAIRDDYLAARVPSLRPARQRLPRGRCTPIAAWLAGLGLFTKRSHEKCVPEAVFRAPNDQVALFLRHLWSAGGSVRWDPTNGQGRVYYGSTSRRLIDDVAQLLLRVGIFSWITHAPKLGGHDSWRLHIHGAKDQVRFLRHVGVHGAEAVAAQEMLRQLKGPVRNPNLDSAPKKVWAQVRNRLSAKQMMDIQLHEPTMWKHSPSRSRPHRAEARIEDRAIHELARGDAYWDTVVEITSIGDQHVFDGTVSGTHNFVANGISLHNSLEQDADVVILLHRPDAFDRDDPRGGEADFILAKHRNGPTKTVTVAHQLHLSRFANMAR

[2] = target: Serine/threonine-protein kinase D2 (Homo sapiens, UniProt Q9BZL6);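 also: measured against PRKD2 as one member of a kinome-wide kinase profiling panel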
Serine/threonine-protein kinase D2, sequence (Q9BZL6 whole entry): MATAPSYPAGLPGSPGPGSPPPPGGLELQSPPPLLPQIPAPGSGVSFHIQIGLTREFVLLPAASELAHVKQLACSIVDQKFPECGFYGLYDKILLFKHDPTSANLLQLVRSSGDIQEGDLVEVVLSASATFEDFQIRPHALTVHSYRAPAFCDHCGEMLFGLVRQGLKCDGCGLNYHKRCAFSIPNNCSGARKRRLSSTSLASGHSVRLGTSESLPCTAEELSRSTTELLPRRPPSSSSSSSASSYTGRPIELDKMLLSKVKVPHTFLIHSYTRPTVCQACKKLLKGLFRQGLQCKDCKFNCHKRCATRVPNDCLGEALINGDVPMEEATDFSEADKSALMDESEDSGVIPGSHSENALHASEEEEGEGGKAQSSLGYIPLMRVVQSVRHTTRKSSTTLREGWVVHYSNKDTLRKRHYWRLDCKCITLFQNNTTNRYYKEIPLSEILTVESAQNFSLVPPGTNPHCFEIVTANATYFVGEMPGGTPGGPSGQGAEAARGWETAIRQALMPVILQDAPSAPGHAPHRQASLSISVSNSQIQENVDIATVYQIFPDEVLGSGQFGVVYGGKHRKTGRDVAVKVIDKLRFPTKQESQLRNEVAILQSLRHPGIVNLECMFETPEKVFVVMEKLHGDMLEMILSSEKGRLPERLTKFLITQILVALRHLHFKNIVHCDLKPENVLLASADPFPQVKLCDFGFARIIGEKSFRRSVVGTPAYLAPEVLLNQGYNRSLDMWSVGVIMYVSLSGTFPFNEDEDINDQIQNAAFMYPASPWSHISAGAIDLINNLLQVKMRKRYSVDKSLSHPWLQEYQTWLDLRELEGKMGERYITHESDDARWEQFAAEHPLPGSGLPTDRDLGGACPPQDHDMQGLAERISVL

[3] = target: Serine/threonine-protein kinase Chk2 (Homo sapiens, UniProt O96017);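 also: CHEK2 entry within a kinome-wide screening panel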
[4] = target: Serine/threonine-protein kinase PAK 1 (Homo sapiens, UniProt Q13153)
Serine/threonine-protein kinase PAK 1, sequence (Q13153 whole entry): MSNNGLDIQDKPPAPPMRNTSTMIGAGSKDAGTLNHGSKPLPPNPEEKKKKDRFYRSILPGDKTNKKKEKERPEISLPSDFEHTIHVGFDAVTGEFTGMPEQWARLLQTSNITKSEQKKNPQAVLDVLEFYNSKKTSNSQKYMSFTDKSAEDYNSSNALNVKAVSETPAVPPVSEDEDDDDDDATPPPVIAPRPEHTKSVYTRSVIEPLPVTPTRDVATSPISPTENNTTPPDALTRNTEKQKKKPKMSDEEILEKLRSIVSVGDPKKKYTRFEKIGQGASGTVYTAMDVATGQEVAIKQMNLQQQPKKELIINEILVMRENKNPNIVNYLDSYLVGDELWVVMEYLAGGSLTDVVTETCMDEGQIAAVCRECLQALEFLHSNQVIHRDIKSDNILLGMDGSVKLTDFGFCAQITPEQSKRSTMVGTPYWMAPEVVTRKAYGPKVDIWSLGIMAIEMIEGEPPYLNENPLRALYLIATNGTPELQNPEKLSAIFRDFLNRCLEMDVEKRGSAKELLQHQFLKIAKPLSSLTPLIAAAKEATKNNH

[5] = target: Tyrosine-protein kinase ITK/TSK (Homo sapiens, UniProt Q08881);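 also: affinity for ITK measured as one member of a broad kinase panel profiling binding across the kinome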
[6] = target: Inhibitor of nuclear factor kappa-B kinase subunit alpha (Homo sapiens, UniProt O15111)
Inhibitor of nuclear factor kappa-B kinase subunit alpha, sequence (O15111 whole entry): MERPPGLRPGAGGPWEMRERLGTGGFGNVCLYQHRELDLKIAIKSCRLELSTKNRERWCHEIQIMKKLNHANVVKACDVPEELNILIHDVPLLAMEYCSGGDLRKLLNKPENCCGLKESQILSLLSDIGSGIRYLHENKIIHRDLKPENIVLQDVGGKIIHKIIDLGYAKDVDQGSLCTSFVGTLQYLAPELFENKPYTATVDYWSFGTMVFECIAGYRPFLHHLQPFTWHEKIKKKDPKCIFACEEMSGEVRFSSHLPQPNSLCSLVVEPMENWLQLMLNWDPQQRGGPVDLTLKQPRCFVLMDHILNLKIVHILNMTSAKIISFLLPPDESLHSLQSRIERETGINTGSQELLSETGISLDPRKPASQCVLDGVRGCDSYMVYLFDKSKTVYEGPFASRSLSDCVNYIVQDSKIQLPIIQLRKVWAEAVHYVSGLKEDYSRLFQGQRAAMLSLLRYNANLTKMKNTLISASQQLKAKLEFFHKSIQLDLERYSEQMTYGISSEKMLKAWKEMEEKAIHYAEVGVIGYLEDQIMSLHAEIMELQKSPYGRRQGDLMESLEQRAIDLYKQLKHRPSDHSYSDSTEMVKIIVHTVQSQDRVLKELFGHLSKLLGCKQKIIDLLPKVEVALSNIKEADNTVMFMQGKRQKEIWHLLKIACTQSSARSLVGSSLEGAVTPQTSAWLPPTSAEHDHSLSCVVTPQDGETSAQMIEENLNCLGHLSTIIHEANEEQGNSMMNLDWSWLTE

[7] = target: Receptor tyrosine-protein kinase erbB-2 (Homo sapiens, UniProt P04626); assay: Navigating the Kinome. Panel member name: ERBB2
Ephrin type-A receptor 2 = Ephrin type-A receptor 2 (Homo sapiens, UniProt P29317);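 also: EPHA2 tested as one member of a kinome-wide kinase panel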
[8] = target: Mitogen-activated protein kinase 1 (Homo sapiens, UniProt P28482)
[9] = target: Calcium/calmodulin-dependent protein kinase type 1 (Homo sapiens, UniProt Q14012)
[10] = target: Serine/threonine-protein kinase PLK1 (Homo sapiens, UniProt P53350);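 also: PLK1 measured as one member of a kinome-wide profiling panel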
Serine/threonine-protein kinase PLK1, sequence (P53350 whole entry): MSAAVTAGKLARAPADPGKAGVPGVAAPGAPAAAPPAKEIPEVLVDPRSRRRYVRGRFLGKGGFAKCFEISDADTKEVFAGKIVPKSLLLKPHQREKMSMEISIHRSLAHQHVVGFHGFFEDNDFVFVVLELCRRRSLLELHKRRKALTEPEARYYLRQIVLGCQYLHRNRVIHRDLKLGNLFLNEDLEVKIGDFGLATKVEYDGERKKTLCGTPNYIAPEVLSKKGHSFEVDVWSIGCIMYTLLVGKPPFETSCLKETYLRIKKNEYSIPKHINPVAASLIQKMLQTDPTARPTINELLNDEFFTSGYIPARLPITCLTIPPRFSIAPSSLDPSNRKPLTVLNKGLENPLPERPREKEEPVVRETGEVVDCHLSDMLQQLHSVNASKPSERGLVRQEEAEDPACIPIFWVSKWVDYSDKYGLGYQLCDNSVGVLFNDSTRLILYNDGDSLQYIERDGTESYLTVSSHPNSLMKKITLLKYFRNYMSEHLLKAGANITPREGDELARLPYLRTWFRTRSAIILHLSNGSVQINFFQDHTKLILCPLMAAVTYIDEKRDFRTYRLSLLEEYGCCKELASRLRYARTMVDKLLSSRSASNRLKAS

[11] = target: Receptor tyrosine-protein kinase erbB-4 (Homo sapiens, UniProt Q15303);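 also: ERBB4 member of a kinome-wide kinase profiling panel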
[12] = target: Serine/threonine-protein kinase MRCK alpha (Homo sapiens, UniProt Q5VT25)
[13] = target: Dual specificity protein kinase CLK2 (Homo sapiens, UniProt P49760)
[14] = target: Proto-oncogene tyrosine-protein kinase receptor Ret (Homo sapiens, UniProt P07949);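 also: measured within a kinome-wide profiling panel, RET as the panel member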
[15] = target: Serine/threonine-protein kinase D3 (Homo sapiens, UniProt O94806);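 also: determined within a kinase panel screen, with PRKCN as the panel member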
[16] = target: Casein kinase I isoform alpha (Homo sapiens, UniProt P48729)
Casein kinase I isoform alpha, sequence (P48729 whole entry, canonical isoform): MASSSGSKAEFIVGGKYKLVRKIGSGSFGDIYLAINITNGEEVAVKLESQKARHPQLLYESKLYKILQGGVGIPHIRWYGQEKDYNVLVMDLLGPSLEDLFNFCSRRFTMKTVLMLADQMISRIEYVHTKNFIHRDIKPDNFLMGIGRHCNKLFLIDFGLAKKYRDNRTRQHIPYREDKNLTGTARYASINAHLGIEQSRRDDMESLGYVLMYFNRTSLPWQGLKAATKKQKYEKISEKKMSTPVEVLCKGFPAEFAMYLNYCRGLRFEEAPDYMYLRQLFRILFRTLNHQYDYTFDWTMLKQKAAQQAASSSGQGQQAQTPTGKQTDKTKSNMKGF

[17] = target: G protein-coupled receptor kinase 5 (Homo sapiens, UniProt P34947); assay: Navigating the Kinome. Panel member name: GPRK5
[18] = target: cAMP-dependent protein kinase catalytic subunit PRKX (Homo sapiens, UniProt P51817)
Focal adhesion kinase 1 = Focal adhesion kinase 1 (Homo sapiens, UniProt Q05397);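 also: measured as one member of a kinome panel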
Focal adhesion kinase 1, sequence (Q05397 whole entry): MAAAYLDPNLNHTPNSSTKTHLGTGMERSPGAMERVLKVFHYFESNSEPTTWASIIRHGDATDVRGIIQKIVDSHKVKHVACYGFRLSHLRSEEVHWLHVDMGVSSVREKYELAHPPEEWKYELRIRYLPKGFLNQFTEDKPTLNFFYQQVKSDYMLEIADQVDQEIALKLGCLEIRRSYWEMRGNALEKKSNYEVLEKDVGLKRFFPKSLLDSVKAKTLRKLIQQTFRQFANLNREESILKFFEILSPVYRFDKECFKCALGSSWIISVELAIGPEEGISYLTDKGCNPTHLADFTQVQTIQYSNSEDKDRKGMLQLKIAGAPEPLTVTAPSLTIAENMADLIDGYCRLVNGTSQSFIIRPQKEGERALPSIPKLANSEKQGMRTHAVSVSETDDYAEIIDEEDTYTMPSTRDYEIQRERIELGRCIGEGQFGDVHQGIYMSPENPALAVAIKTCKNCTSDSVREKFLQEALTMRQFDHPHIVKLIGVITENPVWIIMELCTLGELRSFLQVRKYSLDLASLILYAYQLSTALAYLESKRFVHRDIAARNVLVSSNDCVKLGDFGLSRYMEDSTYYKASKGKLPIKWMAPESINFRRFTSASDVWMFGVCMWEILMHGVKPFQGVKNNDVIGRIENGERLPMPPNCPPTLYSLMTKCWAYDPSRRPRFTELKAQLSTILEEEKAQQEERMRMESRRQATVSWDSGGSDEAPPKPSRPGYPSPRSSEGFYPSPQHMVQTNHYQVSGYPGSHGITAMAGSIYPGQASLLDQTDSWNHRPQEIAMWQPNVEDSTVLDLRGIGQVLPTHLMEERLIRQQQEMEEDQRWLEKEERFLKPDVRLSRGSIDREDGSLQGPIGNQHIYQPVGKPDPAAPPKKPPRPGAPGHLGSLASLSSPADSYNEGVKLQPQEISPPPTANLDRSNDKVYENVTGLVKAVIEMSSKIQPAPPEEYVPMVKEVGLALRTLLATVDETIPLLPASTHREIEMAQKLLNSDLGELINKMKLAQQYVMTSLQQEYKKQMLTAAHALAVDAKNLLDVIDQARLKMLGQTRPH

[19] = target: Cyclin-dependent kinase 8 (Homo sapiens, UniProt P49336); assay: Navigating the Kinome. Panel member name: CDK8
[20] = target: Cyclin-dependent kinase 7 (Homo sapiens, UniProt P50613);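 also: value comes from a kinome-wide kinase profiling panel in which CDK7 is one member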
Cyclin-dependent kinase 7, sequence (P50613 whole entry): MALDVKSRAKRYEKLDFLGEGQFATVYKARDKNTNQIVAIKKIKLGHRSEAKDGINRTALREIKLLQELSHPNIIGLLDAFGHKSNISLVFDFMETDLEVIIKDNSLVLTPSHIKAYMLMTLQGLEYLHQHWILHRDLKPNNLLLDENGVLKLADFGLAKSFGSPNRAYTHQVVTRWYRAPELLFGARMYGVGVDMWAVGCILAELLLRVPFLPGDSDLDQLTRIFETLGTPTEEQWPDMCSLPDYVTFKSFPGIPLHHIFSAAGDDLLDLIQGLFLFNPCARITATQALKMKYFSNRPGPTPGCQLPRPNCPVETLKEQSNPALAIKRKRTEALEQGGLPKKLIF

[21] = target: Dual specificity protein kinase CLK4 (Homo sapiens, UniProt Q9HAZ1)
Dual specificity protein kinase CLK4, sequence (Q9HAZ1 whole entry): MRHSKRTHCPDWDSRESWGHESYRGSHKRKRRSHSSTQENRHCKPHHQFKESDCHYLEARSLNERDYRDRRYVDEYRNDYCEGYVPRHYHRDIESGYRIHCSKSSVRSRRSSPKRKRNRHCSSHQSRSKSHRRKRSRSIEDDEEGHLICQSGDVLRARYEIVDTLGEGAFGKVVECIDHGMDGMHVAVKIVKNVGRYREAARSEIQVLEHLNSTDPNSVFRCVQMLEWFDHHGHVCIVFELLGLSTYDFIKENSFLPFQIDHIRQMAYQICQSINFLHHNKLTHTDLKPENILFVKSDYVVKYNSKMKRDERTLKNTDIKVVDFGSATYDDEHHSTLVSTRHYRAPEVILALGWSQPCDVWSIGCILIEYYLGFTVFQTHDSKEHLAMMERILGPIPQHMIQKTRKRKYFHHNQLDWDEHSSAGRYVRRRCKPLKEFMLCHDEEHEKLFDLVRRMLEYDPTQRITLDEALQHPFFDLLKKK

[22] = target: Macrophage-stimulating protein receptor (Homo sapiens, UniProt Q04912); assay: Navigating the Kinome. Panel member name: MST1R
[23] = target: Inhibitor of nuclear factor kappa-B kinase subunit epsilon (Homo sapiens, UniProt Q14164); assay: Navigating the Kinome. Panel member name: IKBKE

## O=C1C=C(NCc2ccccc2)c2ccccc2C1=O
[1]
  AC50: > 380 µM (inconclusive)

## CCOC(=O)c1cn(-c2ccc(O)cc2C)c2cc(-c3ccncc3)ccc2c1=O
[2]
  Ki: > 10 µM (inactive)
[3]
  Ki: > 10 µM (inactive)
[4]
  Ki: > 10 µM (inactive)
[5]
  Ki: > 1.58 µM (inactive)
[6]
  Ki: > 3.98 µM (inactive)
[7]
  Ki: > 1.58 µM (inactive)
Ephrin type-A receptor 2
  Ki: > 3.16 µM (inactive)
[8]
  Ki: > 7.94 µM (inactive)
[9]
  Ki: > 7.94 µM (inactive)
[10]
  Ki: > 7.94 µM (inactive)
[11]
  Ki: > 3.98 µM (inactive)
[12]
  Ki: 0.251 µM (active)

## Cc1cc(=O)[nH]nc1-c1ccc(NC(=O)Nc2cc(C(F)(F)F)ccc2F)c(Cl)c1
[13]
  Ki: > 3.98 µM (inactive)
[14]
  Ki: 0.00316 µM (active)
[15]
  Ki: > 3.98 µM (inactive)
[16]
  Ki: > 3.98 µM (inactive)
[17]
  Ki: > 3.98 µM (inactive)
[18]
  Ki: > 3.16 µM (inactive)
Focal adhesion kinase 1
  Ki: > 6.31 µM (inactive)
[19]
  Ki: 0.158 µM (active)
[20]
  Ki: > 3.98 µM (inactive)
[21]
  Ki: > 2.51 µM (inactive)
[22]
  Ki: > 3.98 µM (inactive)
[23]
  Ki: > 3.16 µM (inactive)
